target: T1, haematopoietic prostaglandin D synthase (H-PGDS) (Homo sapiens, UniProt O60760); experiment: H-PGDS RapidFire high throughput mass spectrometry assay (conversion of PGH2 to PGD2); assay type: biochemical; settings: 10 nM H-PGDS, PGH2 formed in situ by COX-2 from arachidonic acid; read-out: Potency Range (mean pIC50) (converted)
T1 construct: Full length human H-PGDS cDNA (Invitrogen Ultimate ORF 10H13026) was amplified by PCR; 6-His (N); TEV protease cleavage site (N); made in house; host or cells: E. coli BL21 (DE3*), vector pET22b+
Outline: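 RapidFire SPE–MS read-out calculated percent conversion from relative PGD2 and PGF2α (substrate surrogate) levels. Recombinant full-length human H-PGDS (His-tag, E. coli) turned over PGH2, produced in situ at ˜10 μM by human COX-2 (FLAG-tag, Sf9 cells) acting on arachidonic acid.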

T1 sequence (O60760 whole entry): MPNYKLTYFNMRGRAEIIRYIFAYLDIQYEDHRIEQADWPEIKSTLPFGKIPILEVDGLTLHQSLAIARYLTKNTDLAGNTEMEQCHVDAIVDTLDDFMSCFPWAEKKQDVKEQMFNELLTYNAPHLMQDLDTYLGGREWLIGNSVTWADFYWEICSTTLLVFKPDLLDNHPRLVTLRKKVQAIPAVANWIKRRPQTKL

Row | Compound | IC50 [nM]
1 | O=C(NC1CN(c2ncc(CO)cn2)C1)N1CC(Oc2cc(F)cc3scnc23)C1 [Example 113, 3-((6-Fluorobenzo[d]thiazol-4-yl)oxy)-N-(1-(5-(hydroxymethyl)pyrimidin-2-yl)azetidin-3-yl)azetidine-1-carboxamide] | 10 to 79.4
2 | O=C(NC1CN(c2ncc(CO)cn2)C1)[C@H]1C[C@H](Oc2cc(F)cc3scnc23)C1 [Example 114, (trans)-3-((6-Fluorobenzo[d]thiazol-4-yl)oxy)-N-(1-(5-(hydroxymethyl)pyrimidin-2-yl)azetidin-3-yl)cyclobutanecarboxamide] | 10 to 79.4
3 | COCCO[C@H]1CC[C@H](NC(=O)[C@H]2C[C@H](Oc3cc(F)cc4scnc34)C2)CC1 [Example 115, (trans)-3-((6-Fluorobenzo[d]thiazol-4-yl)oxy)-N-((trans)-4-(2-methoxyethoxy)cyclohexyl)cyclobutanecarboxamide] | 100 to 1000
4 | O=C(NC1CCN(c2ncc(F)cn2)CC1)[C@H]1C[C@H](Oc2cc(F)cc3scnc23)C1 [Example 117, (trans)-3-((6-Fluorobenzo[d]thiazol-4-yl)oxy)-N-(1-(5-fluoropyrimidin-2-yl)piperidin-4-yl)cyclobutanecarboxamide] | 10 to 79.4
5 | O=C(NC1CCN(c2ncc(F)cn2)CC1)N1CC(Oc2cc(F)cc3scnc23)C1 [Example 118, 3-((6-Fluorobenzo[d]thiazol-4-yl)oxy)-N-(1-(5-fluoropyrimidin-2-yl)piperidin-4-yl)azetidine-1-carboxamide] | 10 to 79.4
6 | O=C(NC1CN(c2ccc(F)cn2)C1)N1CC(Oc2cc(F)cc3scnc23)C1 [Example 119, 3-((6-Fluorobenzo[d]thiazol-4-yl)oxy)-N-(1-(5-fluoropyridin-2-yl)azetidin-3-yl)azetidine-1-carboxamide] | 10 to 79.4
7 | O=C(NC1CN(c2ccc(F)cn2)C1)[C@H]1C[C@H](Oc2cc(F)cc3scnc23)C1 [Example 120, (trans)-3-((6-Fluorobenzo[d]thiazol-4-yl)oxy)-N-(1-(5-fluoropyridin-2-yl)azetidin-3-yl)cyclobutanecarboxamide] | 10 to 79.4
8 | Cc1nccc(N2CC(NC(=O)N3CC(Oc4cc(F)cc5scnc45)C3)C2)n1 [Example 122, 3-((6-Fluorobenzo[d]thiazol-4-yl)oxy)-N-(1-(2-methylpyrimidin-4-yl)azetidin-3-yl)azetidine-1-carboxamide] | 10 to 79.4
9 | Cc1nccc(N2CC(NC(=O)[C@H]3C[C@H](Oc4cc(F)cc5scnc45)C3)C2)n1 [Example 123, (trans)-3-((6-Fluorobenzo[d]thiazol-4-yl)oxy)-N-(1-(2-methylpyrimidin-4-yl)azetidin-3-yl)cyclobutanecarboxamide] | 10 to 79.4
10 | COCCO[C@H]1CC[C@H](NC(=O)N2CC(Oc3cc(F)cc4scnc34)C2)CC1 [Example 128, 3-((6-Fluorobenzo[d]thiazol-4-yl)oxy)-N-((trans)-4-(2-methoxyethoxy)cyclohexyl)azetidine-1-carboxamide] | 10 to 79.4
11 | O=C(NC1CN(c2ncccn2)C1)N1CC(Oc2cc(F)cc3scnc23)C1 [Example 129, 3-((6-Fluorobenzo[d]thiazol-4-yl)oxy)-N-(1-(pyrimidin-2-yl)azetidin-3-yl)azetidine-1-carboxamide] | 10 to 79.4
12 | O=C(NC1CN(c2ccnc(Cl)n2)C1)N1CC(Oc2cc(F)cc3scnc23)C1 [Example 130, N-(1-(2-Chloropyrimidin-4-yl)azetidin-3-yl)-3-((6-fluorobenzo[d]thiazol-4-yl)oxy)azetidine-1-carboxamide] | 10 to 79.4
13 | C[C@]1(O)C[C@@H](NC(=O)[C@H]2C[C@H](Oc3cc(F)cc4scnc34)C2)C1 [Example 131, (trans)-3-((6-Fluorobenzo[d]thiazol-4-yl)oxy)-N-((cis)-3-hydroxy-3-methylcyclobutyl)cyclobutanecarboxamide] | 100 to 1000
14 | O=C(NC1CN(c2ccccn2)C1)N1CC(Oc2cc(F)cc3scnc23)C1 [Example 132, 3-((6-Fluorobenzo[d]thiazol-4-yl)oxy)-N-(1-(pyridin-2-yl)azetidin-3-yl)azetidine-1-carboxamide] | 10 to 79.4

From patent US11053234B2 (GlaxoSmithKline Intellectual Property Development Limited, priority 2016, dated 2021)
